Measured values reported in paper PMC7804430, “Synthesis and tumour cell uptake studies of gadolinium(III)–phosphonium complexes” (Scientific Reports, 2021).

Assays:
[1] = Competition (challenge) stability assay with xylenol orange at acidic pH; assay type: physicochemical; settings: absorbance shift 433 to 573 nm
Description: In this work, the relative stability of complexes 6 and 7 were compared to the previously-reported archetypal Gd(III)-DO3A triphenylphosphonium complex (11, shown in Fig. 2) at acidic pH by means of a competition (challenge) assay using the lanthanoid(III) ion indicator xylenol orange[32]. These assays were performed under mildly acidic conditions to ensure the phenolic hydroxyl was protonated prior to chelation.
Solution stability assays were performed using the method described by Barge et al.[32]. Initially an acetate buffer solution (50 mM) was prepared, a portion of which was adjusted to pH 5.8 using NaOH, while other portions were adjusted to pH 5.0, 4.0, or 3.0 using glacial acetic acid. Xylenol orange (5.81 mg) was dissolved in the pH 5.8 acetate buffer (48.4 mL) to give a 10 × concentrated stock solution. These solutions were treated as light sensitive, work was conducted in minimal light and solutions were covered in foil.
25 mM stock solutions of each GdCl3, […] 11 were prepared in the various buffer solutions. […] The plates were agitated in a plate reader and allowed to equilibrate for 24 h. […] The plates were again agitated in a plate reader and allowed to equilibrate for 15 min at RT. The absorbance values were then determined at both 573 nm and 433 nm by means of a BMG LABTECH POLARstar Omega, UV Spectrometer, and the data plotted and processed using Graphpad Prism 7.

[2] = literature values for HPLC calibration curve; cited from earlier work
HF1 tumour cell line = system: HF1 tumour cell line; design: method as in PMID 19825958, PMID 15388578; settings: cited from earlier work

## [Cl][Gd]([Cl])[Cl] [GdCl3]
[1]; pH 5.0, 24 h
  % Gd^3+ retention: 0%
[1]; pH 5.8, 24 h
  % Gd^3+ retention: 0%

## Nc1ccccc1 [aniline]
[2]
  logD7.4 of calibration standards: 0.90

## c1ccc(N(c2ccccc2)c2ccccc2)cc1 [triphenylamine]
[2]
  logD7.4 of calibration standards: 5.74

## Motexafin-Gd [MGd]
HF1 tumour cell line; HF1 tumour cell line, read-out: Concentration resulting in 50% cell arrest
  IC50: < 100 µM
HF1 tumour cell line; in the absence of any X-ray irradiation
  Concentration exhibiting significant cytotoxicity: ca. 50 μM
